In US7842701B2, “Pyrazoloquinolone derivative and use thereof” (Takeda Pharmaceutical Company Limited, priority 2004, dated 2010):

The compounds below were run against T1, Src tyrosine kinase (p60^c-src) (Homo sapiens, UniProt P12931) (assay: Src tyrosine kinase inhibition (α-screen phosphotyrosine assay)). Conditions: 30 ng/ml p60^c-src, 100 ng/ml biotin-labeled poly(Glu:Tyr=4:1), 2 μM ATP, room temperature 10 minutes; value given only as order of magnitude; read-out: IC50 (concentration required for 50% inhibition of the enzyme activity).
T1 construct: purchased Upstate Biotechnology, Inc
Format: biochemical
Procedure: Inhibition activity of the test compound for Src tyrosine kinase was measured by the method described as below. p60^c-src (a preparation purified partically, purchased from Upstate Biotechnology, Inc.) was usded as an enzyme. A biotin-labeled polypeptide (co-polymer of glutamic acid and tyrosine, glutamic acid:tyrosine=4:1, purchased from Nihon Schering K. K. (Japan), prepared by CIS Bio International) was used as a substrate. A solution having composition of 50 mM Tris-HCl (pH 7.5), 5 mM of MgCl2, 5 mM of MnCl2, 2 mM of dithiothreitol, 0.01% of Tween-20 was used as a buffer solution for measuring the activity of tyrosine-kinase. The amount of phosphorylation of tyrosine in the substrate after the reaction was measured by the method using phosphotyrosine recognition antibody. In the concrete, α-screen phosphotyrosine (p-tyr-100) assay kit (manufactured by PerkinElmer, Inc.) was used. Fusion™ (manufactured by PerkinElmer, Inc.) was used as a plate reader. The test compound was dissolved in dimethylsulfoxide, and diluted with the above-mentioned buffer solution for measuring the activity of tyrosine-kinase. To 5 μl of the solution of test compound was added 10 μl of a buffer solution containing 75 ng/ml of the enzyme (p60 ^c-src) and 250 ng/ml of the substrate (biotin-labeled polypeptide), and then added 10 μl of a buffer solution containing 5 μM ATP, and then the tyrosine-kinase reaction was initiated. Accordingly the tyrosine-kinase reaction was meant by a kinase reaction in a solution containing the test compound having designated concentration, 30 ng/ml of p60^c-src, 100 ng/ml of polypeptide, 2 μM of ATP, 50 mM of Tris-HCl (pH 7.5), 5 mM of MgCl2, 5 mM of MnCl2, 2 mM of dithiothreitol and 0.01% of Tween-20, and the amount of the reaction liquid was 25 μl. After the reaction was continued at room temperature for 10 minutes, the kinase reaction was terminated by adding 25 μl of a solution containing 100 mM of EDTA-2 sodium salt (Ethylene Diamine Tetraacetic Acid, disodium salt), 62.5 mM of HEPES (pH 7.4), 250 mM of NaCl, 0.1% of Bovine Serum Albumin, 10 μg/ml of streptavidine donor beads for α-screen assay, 10 μg/ml of acceptor beads binding anti-phosphotyrosin recognition antibody PY-100 for α-screen assay (Anti-phosphotyrisine(P-Tyr-100) Acceptor beads), and then the binding reaction between phosphotyrosine recognition antibody and phosphorylating tyrosine was continued at room temperature for 16 hours, and then the amount of tyrosine phosphorylation was measured by using plate reader Fusion™.
Inhibition rate (%)=100-[(count of the test compound-blank)/(control-blank)]×100 […]

T1 sequence (P12931 whole entry): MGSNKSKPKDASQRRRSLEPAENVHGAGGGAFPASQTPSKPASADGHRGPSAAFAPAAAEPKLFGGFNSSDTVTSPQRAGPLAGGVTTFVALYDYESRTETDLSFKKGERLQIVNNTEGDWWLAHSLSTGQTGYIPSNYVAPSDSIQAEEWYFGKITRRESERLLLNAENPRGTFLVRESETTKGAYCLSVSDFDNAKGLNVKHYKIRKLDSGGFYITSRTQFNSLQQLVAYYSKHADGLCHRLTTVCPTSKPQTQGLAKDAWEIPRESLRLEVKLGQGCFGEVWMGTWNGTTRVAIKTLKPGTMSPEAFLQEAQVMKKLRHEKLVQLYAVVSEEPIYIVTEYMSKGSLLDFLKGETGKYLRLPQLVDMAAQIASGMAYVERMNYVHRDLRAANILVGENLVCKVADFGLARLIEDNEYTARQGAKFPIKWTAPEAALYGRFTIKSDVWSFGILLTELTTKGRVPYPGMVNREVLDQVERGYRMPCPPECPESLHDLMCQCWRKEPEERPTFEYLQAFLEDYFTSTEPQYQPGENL

Row | IC50 [nM] | Structure (SMILES)
1 | ~1 | Cc1ccc(O)cc1-n1nc2c(c1N)c(=O)[nH]c1ccccc12 [Example 37, 3-amino-2-(5-hydroxy-2-methylphenyl)-2,5-dihydro-4H-pyrazolo[4,3-c]quinolin-4-one]
2 | ~1 | Nc1c2c(=O)[nH]c3ccccc3c2nn1-c1cc(O)ccc1Cl [Example 38, 3-amino-2-(2-chloro-5-hydroxyphenyl)-2,5-dihydro-4H-pyrazolo[4,3-c]quinolin-4-one]
3 | ~1 | Nc1c2c(=O)[nH]c3cc(NCCCN4CCC(O)CC4)ccc3c2nn1-c1cccc(O)c1 [Example 61, 3-amino-2-(3-hydroxyphenyl)-7-{[3-(4-hydroxy-1-piperidinyl)propyl]amino}-2,5-dihydro-4H-pyrazolo[4,3-c]quinolin-4-one]
4 | ~1 | Nc1c2c(=O)[nH]c3cc(NCCCN4CCOCC4)ccc3c2nn1-c1cccc(O)c1 [Example 62, 3-amino-2-(3-hydroxyphenyl)-7-{[3-(4-morpholinyl)propyl]amino}-2,5-dihydro-4H-pyrazolo[4,3-c]quinolin-4-one]
